Reference: the NIST ThermoML archive (doi:10.1021/acs.jced.7b01128)
Several values for one entry are separate records, joined by “and”; a condition that tells them apart may be missing. Equal values may be shown once. Numbers after ± are expanded uncertainties.

What was measured:
[1] = Liquid, Ebulliometric method (Recirculating still)
[2] = refractive index (Na D-line) (dimensionless); conditions: 101.33 kPa, Liquid, Standard Abbe refractometry

CCCCO [butan-1-ol]
Conditions	refractive index, 298.15 K	vapor or sublimation pressure, 353.15 K [kPa]	vapor or sublimation pressure, 363.15 K [kPa]	vapor or sublimation pressure, 366.75 K [kPa]	vapor or sublimation pressure, 373.15 K [kPa]	vapor or sublimation pressure, 379.55 K [kPa]	vapor or sublimation pressure, 383.15 K [kPa]	vapor or sublimation pressure, 384.35 K [kPa]	vapor or sublimation pressure, 390.75 K [kPa]
[1]	–	21.73 ± 0.36	34.13 ± 0.38	39.99 ± 0.45	51.86 ± 0.49	66.66 ± 0.56	76.52 ± 0.61	79.99 ± 0.64	100.78 ± 0.7
[2]	1.397 ± 0.004	–	–	–	–	–	–	–	–

CC(C)CCO [3-methylbutan-1-ol]
Conditions	refractive index, 298.15 K	vapor or sublimation pressure, 343.15 K [kPa]	vapor or sublimation pressure, 386.05 K [kPa]	vapor or sublimation pressure, 392.15 K [kPa]	vapor or sublimation pressure, 397.15 K [kPa]	vapor or sublimation pressure, 403.95 K [kPa]
[1]	–	7.73 ± 0.34	53.33 ± 0.51	66.66 ± 0.55	79.99 ± 0.64	101.05 ± 0.67
[2]	1.403 ± 0.004	–	–	–	–	–

C1COCCN1 [tetrahydro-1,4-oxazine]
Conditions	refractive index	vapor or sublimation pressure
[1], 343.15 K	–	13.06 ± 0.3 kPa
[1], 353.15 K	–	19.73 ± 0.31 kPa
[1], 363.15 K	–	28.93 ± 0.34 kPa
[1], 372.15 K	–	39.99 ± 0.38 kPa
[1], 373.15 K	–	41.32 ± 0.38 kPa
[1], 380.75 K	–	53.33 ± 0.42 kPa
[1], 383.15 K	–	57.86 ± 0.48 kPa
[1], 387.55 K	–	66.66 ± 0.51 kPa
[1], 393.35 K	–	79.99 ± 0.57 kPa
[1], 393.45 K	–	79.99 ± 0.57 kPa
[1], 401.15 K	–	101.05 ± 0.61 kPa and 100.78 ± 0.61 kPa
[2], 293.15 K	1.455 ± 0.004	–
